From patent US9024022B2, “Substrates of O6-alkylguanine-DNA alkyltransferase and mutants thereof” (Cis Bio International, priority 2008, dated 2015)

How the values were obtained:
[1] = target: T1, SNAP-tag-ST26 enzyme (SNAP-tag-mGluR2 fusion protein) (Homo sapiens, UniProt P16455, A127T/C150S/C62A/G131K/G132T/K125A/M134L/N157G/R128A/R135S/S159E); assay: Enzymatic reactivity test in a cell model, SNAP-tag-mGluR2 expressed by COS 7 cells; format: cell-based; conditions: living COS 7 cells, labeling 1 h at 37° C., read-out: half saturation concentration of the enzyme
T1 construct: expressed in transfected cells; host or cells: COS 7 cells, transient electroporation
T1 sequence (P16455 1-182 C62A/K125A/A127T/R128A/G131K/G132T/M134L/R135S/C150S/N157G/S159E limits assumed): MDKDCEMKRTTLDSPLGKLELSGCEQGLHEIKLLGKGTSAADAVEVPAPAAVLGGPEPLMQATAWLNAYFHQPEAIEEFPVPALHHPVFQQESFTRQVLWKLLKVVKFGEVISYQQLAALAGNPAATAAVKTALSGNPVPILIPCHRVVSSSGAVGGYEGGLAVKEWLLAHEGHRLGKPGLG
Procedure: This procedure makes it possible to test the reactivity of substrates according to the invention with an AGT expressed by COS 7 cells in the form of a fusion protein with the type 2 glutamate transmembrane receptor (mGluR2).
Various mutants of AGT were analyzed in this study: SNAP-tag-ST26 or CLIP-tag from Covalys or the N-AGT mutant described by Gronemeyer et al. (Protein Engineering, Design & Selection, Vol. 19, No. 7, pp. 309-316, 2006).
• SNAP-tag-mGluR2 plasmid, prepared from the pSET-26b plasmid according to the protocol of the commercial kit (SNAP express pSTE7-26b kit, Covalys Biosciences) • Invitrogen pcdna3.1 plasmid. This plasmid is used as a negative control; the cells transfected with this plasmid are denoted “mock” and make it possible to determine the level of non-specific labeling. Protocol:
The transient transfection of the cells is carried out by electroporation using a Biorad electroporator: 10 million cells are transfected by 1 μg SNAP-tag-mGluR2+3 μg pcdna3.1 in a final volume of 300 μl. The electroporation parameters are: 280 V & 1000 μF.
The cells are then seeded at 150 000 cells per well in Greiner plates (opaque black bottom) previously incubated with polyornithine for 30 minutes at 37° C.
The cells are cultured in the DMEM+Phenol Red+10% FCS+penicillin/streptomycin+non-essential amino acids medium at 37° C. and 5% CO2. After 24 h of expression, a first washing operation is carried out with 100 μl of this same medium.
The labeling of the AGT-mGluR2 fusion protein takes place in 100 μl of complete medium with increasing concentrations of BG-fluorophore or BG-L1-A-L2-fluorophore according to the invention for 1 h at 37° C. Before the reading, 4 washing operations are carried out with 100 μl of Tris-Krebs.
For the substrates bearing fluorophores ATTO647 (example 2), DY647 (examples 1 and 5) and fluorescein-5-EX (example 3), the reading is carried out in 100 μl of Tris-Krebs in direct fluorescence at 682 nm on a Rubystar machine, and at 520 nm for those bearing fluorescein-5-EX (example 3).
For the substrates bearing the terbium KR complex (examples 4 and 6), the reading is taken in 100 μl of Tris-Krebs in time-resolved fluorescence at 620 nm on a Rubystar machine.

[2] = target: T2, SNAP-tag enzyme (GST-SNAP-tag-FKBP fusion protein) (Homo sapiens, UniProt P16455, A127T/C150S/C62A/G131K/G132T/K125A/M134L/N157G/R128A/R135S/S159E); assay: Enzymatic reactivity test in an in vitro model (TR-FRET labeling of GST-SNAPtag-FKBP recombinant protein); format: biochemical; conditions: for reactivity of the substrate with the SNAP-tag enzyme: in vitro protein labeling, compared with reference substrate
T2 construct: GST (N)
T2 sequence (P16455 1-182 C62A/K125A/A127T/R128A/G131K/G132T/M134L/R135S/C150S/N157G/S159E limits assumed): T1 sequence (P16455 1-182 C62A/K125A/A127T/R128A/G131K/G132T/M134L/R135S/C150S/N157G/S159E limits assumed)
From the text: The test of reactivity of the substrates according to the invention with the SNAP-tag enzyme is based on an in vitro test of labeling a recombinant protein.
In this case, use is made of the FRB and FKBP proteins that interact in the presence of rapamycin.
The FKBP protein is labeled by a first fluorophore via SNAP-tag technology: for this, a GST-SNAPtag-FKBP fusion protein is produced from the pSET7-26b plasmid according to the protocol of the commercial kit (SNAP express pSET7-26b kit, Covalys Biosciences AG, Witterswil/Switzerland). This fusion protein is then brought into contact with the first fluorophore conjugated to a reference BG derivative or to a BG derivative according to the invention.
The FRB protein is itself coupled via conventional conjugation techniques with a donor fluorescent compound (europium TBP cryptate (KTBP), Cisbio Bioassay) or acceptor fluorescent compound (DY647, Dyomics) depending on the case, following the protocols provided with these products.
The table below explains the nature of the pairs of fluorophores in each of the following examples 1 to 4:
In each example, 2 nmol of FRB recombinant protein labeled with a europium cryptate or DY647 (2nd fluorophore) are co-incubated at ambient temperature with 2 nmol of GST-SNAP-tag-FKBP recombinant protein and increasing concentrations of BG labeled by the first fluorophore (BG-fluorophore of the prior art or BG-L1-A-L2-fluorophore according to the invention).
The fluorescence readings are taken at 620 nm and at 665 nm on a RubyStar machine (BMG laboratory) after an excitation at 337 nm. The readings are carried out before and after induction of the FRB/FKBP protein interaction by 100 nM of rapamycin. This interaction is expressed by the emission of a TR-FRET signal. Since the SNAP-tag enzyme can only attach to a single fluorescent group, the increase in the TR-FRET signal is directly proportional to the percentage of labeled proteins in the reaction medium. This in vitro model makes it possible to establish enzymatic labeling kinetics as a function of the excess of substrate involved in the reaction.
The results are indicated either as d665 or as % labeling according to the following formulae: d 665=(signal at 665 nm with the GST-ST-FKBP protein)−(signal at 665 nm without the GST-ST-FKBP protein).
The percentage of labeling is obtained by comparison with the signal corresponding to the maximum labeling that is obtained after 18 hours of incubation. % labeling=(d665 at t measured/d665 18 h of incubation)×100. Procedure of the Enzymatic Reactivity Test in a Cell Model

[3] = target: T3, CLIP-tag enzyme (CLIPtag-mGluR2 fusion protein) (Homo sapiens, UniProt P16455, K32I/L33F/M60I/C62A/Y114E/Q115S/Q116H/A121V/K125A/A127T/R128A/G131N/G132T/M134L/R135D/C150Q/S151G/S152D/G153S/A154D/N157P/S159L); assay: Cell model with CLIPtag-mGluR2 and SNAPtag-mGluR2 cotransfection, TR-FRET at 665 nm; format: cell-based; conditions: cells incubated with 300 nM of BG-methylbenzamide-DY647; TR-FRET 665 nm; read-out: half saturation concentration of CLIPtag
T3 construct: The co-expressed SNAPtag-mGluR2 is a separate chain that carries the FRET partner dye
T3 sequence (P16455 1-207 K32I/L33F/M60I/C62A/Y114E/Q115S/Q116H/A121V/K125A/A127T/R128A/G131N/G132T/M134L/R135D/C150Q/S151G/S152D/G153S/A154D/N157P/S159L): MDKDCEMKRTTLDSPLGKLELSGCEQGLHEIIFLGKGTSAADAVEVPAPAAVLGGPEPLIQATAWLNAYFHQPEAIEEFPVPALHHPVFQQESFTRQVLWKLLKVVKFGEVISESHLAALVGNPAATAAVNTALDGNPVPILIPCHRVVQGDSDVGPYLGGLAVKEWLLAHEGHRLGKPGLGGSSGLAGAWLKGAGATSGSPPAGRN
Procedure: The cell model used in this example is different from that used in the preceding examples:
The cells are either cotransfected with a plasmid coding for the fusion protein CLIPtag-mGluR2 and another plasmid coding for the fusion protein SNAPtag-mGluR2, or transfected with a single plasmid coding for the fusion protein SNAPtag-mGluR2.
Each cell population is incubated in the presence of 300 nM of BG-methylbenzamide-DY647 and increasing concentrations of reference substrates (BC-Tb(KR)) or of a substrate according to the invention (BC-methylbenzamide-Tb(KR)). The fluorescence is measured at 665 nm in TR-FRET mode on a Rubystar machine and the signal measured is representative of a transfer of energy following the dimerization of two monomers of mGluR2 labeled respectively by DY647 and Tb(KR).
This example is carried out in the same way as example 7 but the cells are incubated in the presence of 300 nM of BG-methylbenzamide-Tb(KR) and increasing concentrations of reference substrate (BC-DY647) or of substrate according to the invention (BC-methylbenzamide-DY647), the formulae of which are below: […]

With “Atto465-BG [BG-Atto465, reference compound]” the EC50 [1] was 1980 nM.

In the case of “DY647-aminomethylnicotinamide-benzylguanine [BG-aminomethylnicotinamide-DY647]”, the “percentage of labeling of the SNAP-tag enzyme compared with the reference substrate” value ([2]; in vitro, after 30 min of incubation, regardless of the concentration of substrate) is reported as “much better”.

“DY647-cis-cyclohexane-benzylguanine [BG-cis-cyclohexane-DY647]” was tested, and the “percentage of enzyme labeled compared with the reference substrate” value ([2]; in vitro, after 1 h of incubation, regardless of the substrate concentration) was “much better”.

For “Tb(KR)-aminomethylnicotinamide-benzylguanine [BG-aminomethylnicotinamide-Tb(KR)]”, the “reactivity of the substrate with the SNAP-tag enzyme” value [2] was “Results similar to those obtained with the compounds of the preceding examples”.

“Tb(KR)-methylbenzamide-BC [BC-methylbenzamide-Tb(KR)]” gave an EC50 [3] of 131 nM.

For “Tb(KR)-methylbenzamide-BG [BG-methylbenzamide-Tb(KR)]”, the EC50 [1] was 15.4 nM and the “reactivity of the substrate with the SNAP-tag enzyme” value [2] was “much better reactivity”.

“benzylcytosine-Tb(KR) [BC-Tb(KR), reference compound]” gave an EC50 [3] of 820 nM.

“benzylguanine-Tb(KR) [BG-Tb(KR), reference compound]” was tested, and the EC50 [1] was 60 nM.
